# Columns and labels:
# [1] = Solubility in aqueous formulations in comparison to other succinate prodrugs; assay type: physicochemical; conditions: thermodynamic from solid
# Method: Solubility of Compound 1 in aqueous formulations in comparison to other succinate prodrugs was assessed by dissolving solid material in aqueous formulations and measuring the quantity in solution by HPLC (−MS). […] In many cases the max solubility of other prodrugs was lower than 100 uM. See Table 21 for example solubility data in PBS pH7.4 for other succinate prodrugs.
# [2] = Solubility of batches of different crystallinity; assay type: physicochemical; conditions: HPLC-grade water, water, thermodynamic from solid, mainly amorphous material (as worded, refers to Example 10); read-out: aqueous solubility
# Method: Two batches of Compound 1 were generated with different crystallinity. Batch 2 had higher crystallinity than Batch 3, which is regarded as having a higher degree of amorphous Compound 1-Batch 2 is therefore regarded as a more crystalline batch, whereas Batch 3 is regarded as a more amorphous batch. The methods used are discussed in this document.
# A sample of the more amorphous Compound 1 batch 3 was added to PBS or water to a final concentration of 258 mg/mL and sonicated for 10 minutes, then shaken for 30 minutes.
# A sample of the more crystalline Compound 1 batch 2 was added to HPLC-grade water (Fisher) to a final concentration of 30 mg/mL and sonicated for 10 minutes, then shaken for 30 minutes.
# A sample of the more crystalline Compound 1 batch 2 was added to HPLC-grade water (Fisher) to a final concentration of 52 mg/mL and sonicated for 20 minutes, then shaken for 1 hour.
# A sample of the more crystalline Compound 1 batch 2 was added to HPLC-grade water (Fisher) to a final concentration of […] and sonicated for 20 minutes, then shaken for 1.5 hours.
# [3] = Stability in purified (HPLC grade) or non-purified (tap) water; assay type: physicochemical; conditions: room temperature, 6 days
# Method: A side-by-side experiment of the stability of Compound 1 in ‘purified’ HPLC grade water (Fisher Scientific) and ‘non-purified’ tap water was set up. In brief, 1 mg/mL solutions of Compound 1 were generated in ‘purified’ HPLC grade water (Fisher Scientific) and ‘non-purified’ tap water. These were incubated at room temperature for up to 10 days. Concentration and purity of Compound 1 was assessed over time by HPLC in comparison to a standard (AUC of 8.21 RT peak at 230 nm for calculated concentration and AUC of Compound 1 peak vs impurities for purity analysis). Data presented is the average of two samples.
# [4] = test system: microsomes (Sekisui XenoTech); assay: Succinate release on incubation with microsomes (LCMS); assay type: in vitro ADME; conditions: for Compound 1 detected by LCMS: microsomes 0.5 mg/mL, NADPH, malonate
# Method: In brief, a stock of Compound 1 Batch 12 was prepared in 50/50 DMSO/MeCN (200 mM, ×200). This mixture was then diluted 1 in 10 into microsome buffer (20 mM, ×20) consisting of K2HPO4 (Sigma Aldrich, 13.9 g/L, anhydrous), KH2PO4 (Sigma Aldrich, 2.72 g/L, anhydrous), MgCl2.6H2O (Fisher, 1.02 g/L) and EDTA (Sigma Aldrich, 0.375 g/L) dissolved in HPLC grade water. A 200 mM malonic acid (Sigma Aldrich) stock was then prepared in microsome buffer (200 mM, ×20). A 20 mM NADPH stock was also prepared in microsome buffer (20 mM, ×10). A stock of microsomes (Sekisui XenoTech, 0.625 mg/ml) was prepared in a 7 ml vial. Samples were prepared for each timepoint (T=0, 5, 15, 60 mins) as follows: 80 μL microsome stock (0.5 mg/mL final concentration), 5 μL of Compound stock ([…]), 5 μL of malonate stock (10 mM final concentration). The T=0 sample was quenched by adding 100 μL MeOH. Reaction of all timepoints was then initiated with addition of 10 μL NADPH stock (2 mM final concentration). At each timepoint, the reaction was terminated by the addition of 100 μL MeOH. Samples were shaken for 1 min, placed on ice for 10 min, then centrifuged at 3000 rpm for 10 minutes. The supernatant was then analysed by LCMS.
# [5] = Carbonate instability (calcium and carbonate sources); assay type: physicochemical; conditions: for Percentage of Compound 1 remaining compared to T = 0: 1 mg/ml
# Method: Compound 1 Batch 14 (2-3 mg) was dissolved in HPLC grade water at room temperature (1 mg/ml) containing different sources of calcium and carbonate ions (two concentrations for each source, with the pH recorded) and samples were taken at different time intervals for HPLC analysis.
# Calcium and carbonate sources used in the form of inorganic salts: […]
# [6] = In vivo pharmacokinetic studies
# [7] = Aqueous formulations of Compound 1 (water, PBS, saline), concentration by HPLC; assay type: physicochemical; conditions: thermodynamic from solid
smiles,measurement,setting,value
"COC(=O)CCC(=O)SCCNC(C)=O [Compound 1, Methyl 3-[(2-acetylaminoethylthio)carbonyl]propionate]",solubility,"[1]; 0.9% saline, saline or isotonic",> 500 mg/mL
same,solubility,"[1]; aqueous buffer, PBS (pH 7.4)",190 mg/mL
same,solubility,"[1]; pH 7.4, aqueous buffer, PBS pH7.4",> 0.1 mM
same,solubility,[1]; water,> 350 mg/mL
same,solubility at 1.5 h,[2],850 mg/mL
same,degradation (loss in purity and assay),[3]; (non-purified) tap water,Significant degradation
same,degradation (loss in purity and assay),[3]; (purified) HPLC grade water,not observed
same,succinic acid release,[4]; incubated with microsomes,releases succinic acid over time
same,Compound 1 detected by LCMS,"[4]; batch 12, 0 min",0.934 mM
same,Compound 1 detected by LCMS,"[4]; batch 12, 5 min",0.688 mM
same,Compound 1 detected by LCMS,"[4]; batch 12, 15 min",0.388 mM
same,Compound 1 detected by LCMS,"[4]; batch 12, 60 min",0.080 mM
same,Percentage of Compound 1 remaining compared to T = 0,"[5]; (NH4)2CO3 (3.4 mM, pH 8.9), batch 14, day 0",100%
same,Percentage of Compound 1 remaining compared to T = 0,"[5]; (NH4)2CO3 (3.4 mM, pH 8.9), batch 14, day 3",99.6%
same,Percentage of Compound 1 remaining compared to T = 0,"[5]; (NH4)2CO3 (3.4 mM, pH 8.9), batch 14, day 17",85.5%
same,Percentage of Compound 1 remaining compared to T = 0,"[5]; (NH4)2CO3 (3.4 mM, pH 9.3), batch 14, day 0",100%
same,Percentage of Compound 1 remaining compared to T = 0,"[5]; (NH4)2CO3 (3.4 mM, pH 9.3), batch 14, day 3",98.9%
same,Percentage of Compound 1 remaining compared to T = 0,"[5]; (NH4)2CO3 (3.4 mM, pH 9.3), batch 14, day 17",57.5%
same,Percentage of Compound 1 remaining compared to T = 0,"[5]; Ca(NO3)2 (0.34 mM, pH 7.3), batch 14, day 0",100%
same,Percentage of Compound 1 remaining compared to T = 0,"[5]; Ca(NO3)2 (0.34 mM, pH 7.3), batch 14, day 3",101%
same,Percentage of Compound 1 remaining compared to T = 0,"[5]; Ca(NO3)2 (0.34 mM, pH 7.3), batch 14, day 17",97.5%
same,Percentage of Compound 1 remaining compared to T = 0,"[5]; Ca(NO3)2 (3.4 mM, pH 7.2), batch 14, day 0",100%
same,Percentage of Compound 1 remaining compared to T = 0,"[5]; Ca(NO3)2 (3.4 mM, pH 7.2), batch 14, day 3",100%
same,Percentage of Compound 1 remaining compared to T = 0,"[5]; Ca(NO3)2 (3.4 mM, pH 7.2), batch 14, day 17",97.1%
same,Percentage of Compound 1 remaining compared to T = 0,"[5]; CaCO3 (0.34 mM, pH 7.6), batch 14, day 0",100%
same,Percentage of Compound 1 remaining compared to T = 0,"[5]; CaCO3 (0.34 mM, pH 7.6), batch 14, day 3",93.8%
same,Percentage of Compound 1 remaining compared to T = 0,"[5]; CaCO3 (0.34 mM, pH 7.6), batch 14, day 17",50.4%
same,Percentage of Compound 1 remaining compared to T = 0,"[5]; CaCO3 (3.4 mM, pH 7.6), batch 14, day 0",100%
same,Percentage of Compound 1 remaining compared to T = 0,"[5]; CaCO3 (3.4 mM, pH 7.6), batch 14, day 3",93.6%
same,Percentage of Compound 1 remaining compared to T = 0,"[5]; CaCO3 (3.4 mM, pH 7.6), batch 14, day 17",49.5%
same,Percentage of Compound 1 remaining compared to T = 0,"[5]; CaCl2 (0.34 mM, pH 7.4), batch 14, day 0",100%
same,Percentage of Compound 1 remaining compared to T = 0,"[5]; CaCl2 (0.34 mM, pH 7.4), batch 14, day 3",98.4%
same,Percentage of Compound 1 remaining compared to T = 0,"[5]; CaCl2 (0.34 mM, pH 7.4), batch 14, day 17",95.1%
same,Percentage of Compound 1 remaining compared to T = 0,"[5]; CaCl2 (3.4 mM, pH 7.5), batch 14, day 0",100%
same,Percentage of Compound 1 remaining compared to T = 0,"[5]; CaCl2 (3.4 mM, pH 7.5), batch 14, day 3",101%
same,Percentage of Compound 1 remaining compared to T = 0,"[5]; CaCl2 (3.4 mM, pH 7.5), batch 14, day 17",96.7%
same,Percentage of Compound 1 remaining compared to T = 0,"[5]; HPLC water (control, pH 6.5), batch 14, day 0",100%
same,Percentage of Compound 1 remaining compared to T = 0,"[5]; HPLC water (control, pH 6.5), batch 14, day 3",94.3%
same,Percentage of Compound 1 remaining compared to T = 0,"[5]; HPLC water (control, pH 6.5), batch 14, day 17",91.4%
same,degradation in aqueous solution with carbonate ions,[5]; vs calcium chloride / nitrate and control,degrades more rapidly
same,brain penetration,[6],brain penetrant
same,oral bioavailability,[6],high oral bioavailability
same,solubility,"[7]; aqueous buffer, pH 7.4, aqueous media tested, room temperature (20-25° C.), read-out: aqueous solubility",≥ 300 mg/mL
same,solubility,"[7]; water and aqueous systems, water, read-out: solubility",> 500 mg/mL
same,solubility,"[7]; water and aqueous systems, water, read-out: solubility (molar equivalent)",~2100 mM
